Laboratory results as given in US6201025A, “N-aralkylaminotetralins as ligands for the neuropeptide Y Y5 receptor” (Ortho-McNeil Pharmaceutical, Inc., priority 1999, dated 2001).
Structures can show the parent of a compound that is named as a salt. Where two headings read alike, the source gives them in different places.

Biological target: T1, human neuropeptide Y5 receptor (Homo sapiens, UniProt Q15761)
T1 construct: expressed in transfected cells; cell membranes
T1 sequence (Q15761 1-445): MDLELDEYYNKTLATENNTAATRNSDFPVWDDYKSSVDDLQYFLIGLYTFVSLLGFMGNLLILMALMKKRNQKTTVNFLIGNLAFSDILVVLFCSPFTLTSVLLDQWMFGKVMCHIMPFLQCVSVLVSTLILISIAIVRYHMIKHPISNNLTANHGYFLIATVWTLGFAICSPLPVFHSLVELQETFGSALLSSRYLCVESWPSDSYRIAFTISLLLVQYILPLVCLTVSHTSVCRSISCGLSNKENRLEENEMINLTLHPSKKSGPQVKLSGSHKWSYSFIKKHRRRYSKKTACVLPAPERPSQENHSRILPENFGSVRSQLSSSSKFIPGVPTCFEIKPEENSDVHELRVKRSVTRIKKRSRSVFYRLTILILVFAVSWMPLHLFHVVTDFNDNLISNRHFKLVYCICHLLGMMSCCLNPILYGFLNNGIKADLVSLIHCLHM
Test: NPY5 HTS Centrifugation Assay: competition of 125I-PYY binding to membranes of NPY5-transfected HEK293 cells
Conditions: for inhibition at 3 µM: read-out: % Inhibition of 125I-PYY Binding @ 3 uM; for inhibition at 30 µM: read-out: % Inhibition of 125I-PYY Binding @ 30 uM
Procedure: The compounds described in this invention were evaluated for binding to the human neuropeptide Y5 receptor.
Stably transfected cells served as the source for the membranes for the NPY5 receptor binding assay.
NPY5-transfected HEK293 cells were grown to confluence in 150 cm^2 culture dishes. […] Cells were then incubated in phosphate-buffered saline without Calcium and without Magnesium, supplemented with 2 mM EDTA. Cells were incubated for 10 minutes at room temperature and the cells were collected by repetitive pipeting. Cells were formed into pellets and then frozen at -80° C. until needed. Frozen pellets were homogenized with a polytron at full speed for 12 seconds in a homogenization buffer (20 mM Tris HCl, 5 mM EDTA, pH 7.4). Homogenates were centrifuged for 5 minutes at 4° C. at 200 g. Supernatants were transferred to corex tubes and centrifuged for 25 minutes at 28,000 g. Pellets were re-suspended in Binding (20 mM HEPES, 10 mM NaCl, 0.22 mM KH2 PO4, 1.3 mM CaCl2, 0.8 mM MgSO4, pH 7.4). Membranes were kept on ice until use.
Compounds to be tested were prepared as 10x stocks in binding buffer and added first to assay tubes (RIA vials, Sarstedt). […] To each tube is added 100 μL of membranes and the mixture is agitated by pipeting 2 times. Samples are incubated for 1 hr at room temperature. Aluminum cast plates (Sarstedt) containing the vials are then centrifuged 10 minutes at 3200 rpm in a Sorvall RT6000. Supernatant is then aspirated. To each vial 400 μL PBS is added and this is then aspirated again. Vials are then put in carrier polypropylene 12×75 tube and counted in gamma counter (Packard). Non-specific binding is determined in the presence of 300 nM NPY.

[1] = 3 uM, 80 pM 125I-PYY, human NPY Y5 receptor, 1 hr room temperature
[2] = 30 uM, 80 pM 125I-PYY, human NPY Y5 receptor, 1 hr room temperature

| Compound | inhibition at 3 µM [1] | inhibition at 30 µM [2] | inhibition at 3 µM | inhibition at 30 µM |
| --- | --- | --- | --- | --- |
| COc1ccc(C[C@H]2c3ccc(OC)cc3CC[C@H]2NCCc2ccc(OC)c(OC)c2)cc1 (relative stereo) [Compound 34] | 89% | 103% | – | – |
| COc1ccc2c(c1)CC[C@@H](NCCc1ccc(Cl)c(Cl)c1)[C@H]2Cc1ccccc1 (relative stereo) [Compound 31] | 31% | 93% | – | – |
| COc1ccc2c(c1)CC[C@@H](NCCc1ccc(OC)c(OC)c1)[C@H]2Cc1cccc2ccccc12 (relative stereo) [Compound 33] | 16% | 73% | – | – |
| COc1ccc2c(c1)CC[C@@H](NCCc1ccccc1)[C@H]2Cc1ccccc1 (relative stereo) [Compound 29] | 33% | 95% | – | – |
| Fc1ccc(CN[C@H]2CCc3ccccc3[C@H]2Cc2ccccc2)cc1 (racemic) [Compound 9, rac-cis-1-(Phenylmethyl)-N-(4-fluorophenylmethyl)-1,2,3,4-tetrahydro-2-naphthalenamine monohydrobromide] | 20% | 97% | – | – |
| COc1ccc(CCN[C@@H]2CCc3cc(OC)ccc3[C@@H]2Cc2ccccc2)cc1 (relative stereo) [Compound 30] | 62% | 99% | – | – |
| COc1ccccc1CN[C@H]1CCc2ccccc2[C@H]1Cc1ccc(F)cc1 (racemic) [Compound 12, rac-cis-1-(4-Fluorophenylmethyl)-N-(2-methoxyphenylmethyl)-1,2,3,4-tetrahydro-2-naphthalenamine monohydrobromide] | 16% | 98% | – | – |
| Fc1ccc(CCN[C@@H]2CCc3ccccc3[C@@H]2Cc2ccccc2)cc1 (relative stereo) [Compound 14, monohydrobromide] | 13% | 98% | – | – |
| COc1ccc2c(c1)CC[C@H](NCCc1ccc(OC)c(OC)c1)[C@@H]2Cc1ccccc1 (racemic) [Compound 6, rac-cis-1-(Phenylmethyl)-6-methoxy-N-(2-(3,4-dimethoxyphenyl)ethyl)-1,2,3,4-tetrahydro-2-naphthalenamine] | 86% | 101% | – | – |
| COc1ccc2c(c1)CC[C@@H](NCCc1ccc(Oc3ccccc3)cc1)[C@H]2Cc1ccccc1 (relative stereo) [Compound 36] | 35% | 87% | – | – |
| c1ccc2c(c1)CC[C@@H](NCCc1c[nH]c3ccccc13)[C@@H]2Cc1ccc2ccccc2c1 (racemic) [Compound 21, rac-trans-1-(2-Naphthylmethyl)-N-(2-(3-indolyl)ethyl)-1,2,3,4-tetrahydro-2-naphthalenamine monooxalate] | – | – | 33% | 103% |
| Fc1ccc(C[C@@H]2c3ccccc3CC[C@@H]2NCCCc2ccccc2)cc1 (racemic) [Compound 24, rac-cis-1-(4-Fluorophenylmethyl)-N-(3-phenylpropyl)-1,2,3,4-tetrahydro-2-naphthalenamine monohydrobromide] | 19% | 102% | – | – |
| COc1ccc(CCN[C@@H]2CCc3ccccc3[C@@H]2Cc2ccccc2)cc1OC (relative stereo) [Compound 35] | 47% | 99% | – | – |
| COc1ccccc1CN[C@H]1CCc2ccccc2[C@H]1Cc1ccc2ccccc2c1 (racemic) [Compound 22, rac-cis-1-(2-Naphthylmethyl)-N-(2-methoxyphenylmethyl)-1,2,3,4-tetrahydro-2-naphthalenamine monohydrobromide] | 15% | 96% | – | – |
| COCCOc1ccc(CCN[C@H]2CCc3cc(OC)ccc3[C@H]2Cc2ccccc2)cc1 (relative stereo) [Compound 37] | 84% | – | – | – |
| COc1ccccc1C(=O)N[C@@H]1CCc2ccccc2[C@@H]1Cc1ccccc1 (relative stereo) [Compound 17, rac-cis-1-(Phenylmethyl)-N-(2-methoxyphenyl-2-oxomethyl)-1,2,3,4-tetrahydro-2-naphthalenamine monohydrobromide] | 65% | 98% | – | – |
| COc1cccc(C[C@H]2c3ccc(OC)cc3CC[C@H]2NCCc2ccc(OC)c(OC)c2)c1 (relative stereo) [Compound 32] | 44% | 97% | – | – |
| c1ccc(C[C@H]2c3ccccc3CC[C@H]2NCCc2c[nH]c3ccccc23)cc1 (relative stereo) [Compound 8] | 73% | 105% | – | – |
| COc1ccc(CCN[C@H]2CCc3ccccc3[C@H]2Cc2cccnc2)cc1OC (relative stereo) [Compound 28, rac-cis-1-(3-pyridylmethyl)-N-(2-(3,4-dimethoxyphenyl)ethyl-1,2,3,4-tetrahydro-2-naphthalenaminemonohydrobromide] | 11% | 66% | – | – |
| COc1ccccc1CN[C@H]1CCc2ccccc2[C@H]1Cc1ccccc1 (racemic) [Compound 11, rac-cis-1-(Phenylmethyl)-N-(2-methoxyphenylmethyl)-1,2,3,4-tetrahydro-2-naphthalenamine] | 21% | 96% | – | – |
| COc1ccc2c(c1)[C@@H](Cc1ccccc1)[C@H](NCCc1c[nH]c3ccccc13)CC2 (racemic) [Compound 19, rac-trans-1-(Phenylmethyl)-7-methoxy-N-(2(3-indolyl)ethyl)-1,2,3,4-tetrahydro-2-naphthalenamine monooxalate] | – | – | 49% | – |
| COc1ccccc1CN[C@@H]1CCc2ccccc2[C@H]1Cc1ccc(F)cc1 (racemic) [Compound 13, rac-trans-1-(4-Fluorophenylmethyl)-N-(2-methoxyphenylmethyl)-1,2,3,4-tetrahydro-2-naphthalenamine monooxalate] | – | – | 16% | 89% |
| COc1ccc2c(c1)[C@@H](Cc1ccccc1)[C@@H](NCc1ccccc1OC)CC2 (racemic) [Compound 15, rac-cis-1-(Phenylmethyl)-7-methoxy-N-(2-methoxyphenylmethyl)-1,2,3,4-tetrahydro-2-naphthalenamine monohydrobromide] | 31% | – | – | – |
| COc1ccccc1CC(=O)N[C@@H]1CCc2ccccc2[C@@H]1Cc1ccccc1 (relative stereo) [Compound 23] | 12% | 47% | – | – |
| c1ccc2c(c1)CC[C@@H](NCCc1c[nH]c3ccccc13)[C@H]2Cc1ccc2ccccc2c1 (relative stereo) [Compound 20, rac-cis-1-(2-Naphthylmethyl)-N-(2-(3-indolyl)ethyl)-1,2,3,4-tetrahydro-2-naphthalenamine hemifumarate methanol] | 27% | 99% | – | – |
| COc1ccc2c(c1)[C@H](Cc1ccccc1)[C@H](NCCc1c[nH]c3ccccc13)CC2 (relative stereo) [Compound 18, rac-cis-1-(Phenylmethyl)-7-methoxy-N-(2-(3-indolyl)ethyl)-1,2,3,4-tetrahydro-2-naphthalenamine 0.8 fumarate 0.8 methanol 0.2 hydrate] | 61% | 104% | – | – |
| Fc1ccc(C[C@@H]2c3ccccc3CC[C@H]2NCCc2c[nH]c3ccccc23)cc1 (racemic) [Compound 16, rac-trans-1-(4-Fluorophenylmethyl)-N-(2-(3-indolyl)ethyl)-1,2,3,4-tetrahydro-2-naphthalenamine monooxalate] | – | – | 48% | 101% |
